Read-outs that look alike come from different tables or passages of the source.
Tests used:
Test in all cases: AK assay 384-well format, Prestwick library screening
[1] = test system: E. faecium; type: cell-based, Enterococcus faecium; conditions: 50 μM final drug concentration; for fold induction at 50 µM: Enterococcus faecium, 3 h
[2] = test system: S. aureus strain USA300-0114; type: cell-based, Staphylococcus aureus; conditions: 50 μM final drug concentration; for fold induction at 50 µM: Staphylococcus aureus, USA300, 3 h
[3] = test system: K. pneumoniae; type: cell-based, Klebsiella pneumoniae; conditions: 50 μM final drug concentration; for fold induction at 50 µM: Klebsiella pneumoniae, 3 h
[4] = test system: A. baumannii strain 98-37-09; type: cell-based, Acinetobacter baumannii; conditions: 50 μM final drug concentration; for fold induction at 50 µM: Acinetobacter baumannii, 983709, 3 h
[5] = test system: P. aeruginosa; type: cell-based, Pseudomonas aeruginosa; conditions: 50 μM final drug concentration; for fold induction at 50 µM: Pseudomonas aeruginosa, 3 h
[6] = test system: E. cloacae; type: cell-based, Enterobacter cloacae; conditions: 50 μM final drug concentration; for fold induction at 50 µM: Enterobacter cloacae, 3 h
[7] = test system: E. coli; type: cell-based, Escherichia coli; conditions: 50 μM final drug concentration; for fold induction at 50 µM: Escherichia coli, 3 h
[8] = planktonic, cutoff for positive 3-fold increase, read-out: AK-based Prestwick Library Screening Results, E. faecium (fold increase in extracellular AK activity)
[9] = planktonic, cutoff for positive 3-fold increase, read-out: AK-based Prestwick Library Screening Results, S. aureus (fold increase in extracellular AK activity)
[10] = planktonic, cutoff for positive 3-fold increase, read-out: AK-based Prestwick Library Screening Results, K. pneumoniae (fold increase in extracellular AK activity)
[11] = planktonic, cutoff for positive 3-fold increase, read-out: AK-based Prestwick Library Screening Results, A. baumannii (fold increase in extracellular AK activity)
[12] = planktonic, cutoff for positive 3-fold increase, read-out: AK-based Prestwick Library Screening Results, P. aeruginosa (fold increase in extracellular AK activity)
[13] = planktonic, cutoff for positive 3-fold increase, read-out: AK-based Prestwick Library Screening Results, E. cloacae (fold increase in extracellular AK activity)
[14] = planktonic, cutoff for positive 3-fold increase, read-out: AK-based Prestwick Library Screening Results, E. coli (fold increase in extracellular AK activity)
[15] = planktonic, cutoff for positive-scoring molecules 3-fold increase, read-out: AK-based Prestwick Library Screening Results, E. faecium (fold increase in extracellular AK activity)
[16] = planktonic, cutoff for positive-scoring molecules 3-fold increase, read-out: AK-based Prestwick Library Screening Results, S. aureus (fold increase in extracellular AK activity)
[17] = planktonic, cutoff for positive-scoring molecules 3-fold increase, read-out: AK-based Prestwick Library Screening Results, K. pneumoniae (fold increase in extracellular AK activity)
[18] = planktonic, cutoff for positive-scoring molecules 3-fold increase, read-out: AK-based Prestwick Library Screening Results, A. baumannii (fold increase in extracellular AK activity)
[19] = planktonic, cutoff for positive-scoring molecules 3-fold increase, read-out: AK-based Prestwick Library Screening Results, P. aeruginosa (fold increase in extracellular AK activity)
[20] = planktonic, cutoff for positive-scoring molecules 3-fold increase, read-out: AK-based Prestwick Library Screening Results, E. cloacae (fold increase in extracellular AK activity)
[21] = planktonic, cutoff for positive-scoring molecules 3-fold increase, read-out: AK-based Prestwick Library Screening Results, E. coli (fold increase in extracellular AK activity)

CCC1(c2ccc(N)cc2)CCC(=O)NC1=O (stereo not drawn) [Glutethimide, para-amino]
AK-based Prestwick Library Screening Results, E. faecium (increase in extracellular AK activity) ([1]; 384-well format, […]): 0.9
AK-based Prestwick Library Screening Results, S. aureus (increase in extracellular AK activity) ([2]; 384-well format, […]): 0.5
AK-based Prestwick Library Screening Results, K. pneumoniae (increase in extracellular AK activity) ([3]; 384-well format, […]): 0.6
AK-based Prestwick Library Screening Results, A. baumannii (increase in extracellular AK activity) ([4]; 384-well format, […]): 0.6
AK-based Prestwick Library Screening Results, P. aeruginosa (increase in extracellular AK activity) ([5]; 384-well format, […]): 0.6
AK-based Prestwick Library Screening Results, E. cloacae (increase in extracellular AK activity) ([6]; 384-well format, […]): 0.5
AK-based Prestwick Library Screening Results, E. coli (increase in extracellular AK activity) ([7]; 384-well format, […]): 0.5

C[C@H](CCC(=O)NCC(=O)O)[C@H]1CC[C@H]2[C@@H]3[C@H](O)C[C@@H]4C[C@H](O)CC[C@]4(C)[C@H]3C[C@H](O)[C@]12C [Glycocholic acid]
fold induction at 50 µM [1, 8]: 1.1
fold induction at 50 µM [2, 9]: 1.2
fold induction at 50 µM [3, 10]: 1
fold induction at 50 µM [4, 11]: 1.1
fold induction at 50 µM [5, 12]: 1.1
fold induction at 50 µM [6, 13]: 1.4
fold induction at 50 µM [7, 14]: 1.1

C[N+]1(C)CCC(OC(=O)C(O)(c2ccccc2)C2CCCC2)C1 (stereo not drawn) [Glycopyrrolate]
fold induction at 50 µM [1, 15]: 0.9
fold induction at 50 µM [2, 16]: 0.7
fold induction at 50 µM [3, 17]: 0.8
fold induction at 50 µM [4, 18]: 0.8
fold induction at 50 µM [5, 19]: 0.9
fold induction at 50 µM [6, 20]: 1.1
fold induction at 50 µM [7, 21]: 0.9

Cc1cc2c(C(C)C)c(O)c(O)c(C=O)c2c(O)c1-c1c(C)cc2c(C(C)C)c(O)c(O)c(C=O)c2c1O [Gossypol]
fold induction at 50 µM ([1]; planktonic, […], read-out: AK-based Prestwick Library Screening Results, E. faecium (fold increase in extracellular AK activity)): 1.3
fold induction at 50 µM ([2]; planktonic, […], read-out: AK-based Prestwick Library Screening Results, S. aureus (fold increase in extracellular AK activity)): 0.2
fold induction at 50 µM ([3]; planktonic, […], read-out: AK-based Prestwick Library Screening Results, K. pneumoniae (fold increase in extracellular AK activity)): 0.3
fold induction at 50 µM ([4]; planktonic, […], read-out: AK-based Prestwick Library Screening Results, A. baumannii (fold increase in extracellular AK activity)): 0.4
fold induction at 50 µM ([5]; planktonic, […], read-out: AK-based Prestwick Library Screening Results, P. aeruginosa (fold increase in extracellular AK activity)): 0.5
fold induction at 50 µM ([6]; planktonic, […], read-out: AK-based Prestwick Library Screening Results, E. cloacae (fold increase in extracellular AK activity)): 1.5
fold induction at 50 µM ([7]; planktonic, […], read-out: AK-based Prestwick Library Screening Results, E. coli (fold increase in extracellular AK activity)): 0.6

CN(C)Cc1c[nH]c2ccccc12 [Gramine]
fold induction at 50 µM [1, 8]: 1
fold induction at 50 µM [2, 9]: 1.3
fold induction at 50 µM [3, 10]: 1
fold induction at 50 µM [4, 11]: 1.3
fold induction at 50 µM [5, 12]: 1.1
fold induction at 50 µM [6, 13]: 1.5
fold induction at 50 µM [7, 14]: 1.2

Cn1c(-c2ccc3c(c2)OCO3)cc(=O)c2ccccc21 [Graveoline]
fold induction at 50 µM [1, 15]: 0.8
fold induction at 50 µM [2, 16]: 0.7
fold induction at 50 µM [3, 17]: 0.6
fold induction at 50 µM [4, 18]: 0.8
fold induction at 50 µM [5, 19]: 0.8
fold induction at 50 µM [6, 20]: 1.2
fold induction at 50 µM [7, 21]: 0.8

COC1=CC(=O)C[C@@H](C)[C@]12Oc1c(Cl)c(OC)cc(OC)c1C2=O [Griseofulvin]
fold induction at 50 µM ([1]; planktonic E. faecium, 384-well, cutoff for positive-scoring molecules 3-fold increase, read-out: AK-based Prestwick Library Screening Results: E. faecium (increase in extracellular AK activity)): 1.1
fold induction at 50 µM ([2]; planktonic S. aureus, 384-well, cutoff for positive-scoring molecules 3-fold increase, read-out: AK-based Prestwick Library Screening Results: S. aureus (increase in extracellular AK activity)): 1.4
fold induction at 50 µM ([3]; planktonic K. pneumoniae, 384-well, cutoff for positive-scoring molecules 3-fold increase, read-out: AK-based Prestwick Library Screening Results: K. pneumoniae (increase in extracellular AK activity)): 0.9
fold induction at 50 µM ([4]; planktonic A. baumannii, 384-well, cutoff for positive-scoring molecules 3-fold increase, read-out: AK-based Prestwick Library Screening Results: A. baumannii (increase in extracellular AK activity)): 1.4
fold induction at 50 µM ([5]; planktonic P. aeruginosa, 384-well, cutoff for positive-scoring molecules 3-fold increase, read-out: AK-based Prestwick Library Screening Results: P. aeruginosa (increase in extracellular AK activity)): 1.3
fold induction at 50 µM ([6]; planktonic E. cloacae, 384-well, cutoff for positive-scoring molecules 3-fold increase, read-out: AK-based Prestwick Library Screening Results: E. cloacae (increase in extracellular AK activity)): 1.3
fold induction at 50 µM ([7]; planktonic E. coli, 384-well, cutoff for positive-scoring molecules 3-fold increase, read-out: AK-based Prestwick Library Screening Results: E. coli (increase in extracellular AK activity)): 1.3

COc1ccccc1OCC(O)CO (stereo not drawn) [Guaifenesin]
fold induction at 50 µM ([1]; […], read-out: AK-based Prestwick Library Screening Results, E. faecium (fold increase in extracellular AK activity)): 1
fold induction at 50 µM ([2]; […], read-out: AK-based Prestwick Library Screening Results, S. aureus (fold increase in extracellular AK activity)): 1.2
fold induction at 50 µM ([3]; […], read-out: AK-based Prestwick Library Screening Results, K. pneumoniae (fold increase in extracellular AK activity)): 0.8
fold induction at 50 µM ([4]; […], read-out: AK-based Prestwick Library Screening Results, A. baumannii (fold increase in extracellular AK activity)): 1
fold induction at 50 µM ([5]; […], read-out: AK-based Prestwick Library Screening Results, P. aeruginosa (fold increase in extracellular AK activity)): 1.1
fold induction at 50 µM ([6]; […], read-out: AK-based Prestwick Library Screening Results, E. cloacae (fold increase in extracellular AK activity)): 1.6
fold induction at 50 µM ([7]; […], read-out: AK-based Prestwick Library Screening Results, E. coli (fold increase in extracellular AK activity)): 1.1

N=C(N)N/N=C/c1c(Cl)cccc1Cl [Guanabenz acetate]
fold induction at 50 µM ([1]; 384-well format, cutoff for positive-scoring molecules 3-fold increase, read-out: AK-based Prestwick Library Screening Results, E. faecium (increase in extracellular AK activity)): 1
fold induction at 50 µM ([2]; 384-well format, cutoff for positive-scoring molecules 3-fold increase, read-out: AK-based Prestwick Library Screening Results, S. aureus (increase in extracellular AK activity)): 0.5
fold induction at 50 µM ([3]; 384-well format, cutoff for positive-scoring molecules 3-fold increase, read-out: AK-based Prestwick Library Screening Results, K. pneumoniae (increase in extracellular AK activity)): 0.4
fold induction at 50 µM ([4]; 384-well format, cutoff for positive-scoring molecules 3-fold increase, read-out: AK-based Prestwick Library Screening Results, A. baumannii (increase in extracellular AK activity)): 0.8
fold induction at 50 µM ([5]; 384-well format, cutoff for positive-scoring molecules 3-fold increase, read-out: AK-based Prestwick Library Screening Results, P. aeruginosa (increase in extracellular AK activity)): 0.6
fold induction at 50 µM ([6]; 384-well format, cutoff for positive-scoring molecules 3-fold increase, read-out: AK-based Prestwick Library Screening Results, E. cloacae (increase in extracellular AK activity)): 0.7
fold induction at 50 µM ([7]; 384-well format, cutoff for positive-scoring molecules 3-fold increase, read-out: AK-based Prestwick Library Screening Results, E. coli (increase in extracellular AK activity)): 0.7

Reference: patent US10004701B2, “Methods and compositions for treating infection” (UNIVERSITY OF ROCHESTER, priority 2012, dated 2018)
